Reference: patent US6794402B2, “Bicyclic cyclohexylamines and their use as NMDA receptor antagonists” (Warner-Lambert Company, priority 2000, dated 2004)
Counter-ions that a name gives are not always drawn.

Legend:
[1] = target: T1, [3H]ifenprodil binding site, rat forebrain membranes (Rattus norvegicus, UniProt P35439+Q00960); assay: [3H]Ifenprodil binding assay; details: 4 nM [3H]-ifenprodil, 2 hours at room temperature
T1 construct: membrane fraction was prepared from frozen adult rat forebrains; tissue Zivic-Miller Laboratories, Inc; host or cells: adult rat forebrain, washed buffy coat membrane fraction
T1 sequence (Q00960 27-1482, other chains not shown): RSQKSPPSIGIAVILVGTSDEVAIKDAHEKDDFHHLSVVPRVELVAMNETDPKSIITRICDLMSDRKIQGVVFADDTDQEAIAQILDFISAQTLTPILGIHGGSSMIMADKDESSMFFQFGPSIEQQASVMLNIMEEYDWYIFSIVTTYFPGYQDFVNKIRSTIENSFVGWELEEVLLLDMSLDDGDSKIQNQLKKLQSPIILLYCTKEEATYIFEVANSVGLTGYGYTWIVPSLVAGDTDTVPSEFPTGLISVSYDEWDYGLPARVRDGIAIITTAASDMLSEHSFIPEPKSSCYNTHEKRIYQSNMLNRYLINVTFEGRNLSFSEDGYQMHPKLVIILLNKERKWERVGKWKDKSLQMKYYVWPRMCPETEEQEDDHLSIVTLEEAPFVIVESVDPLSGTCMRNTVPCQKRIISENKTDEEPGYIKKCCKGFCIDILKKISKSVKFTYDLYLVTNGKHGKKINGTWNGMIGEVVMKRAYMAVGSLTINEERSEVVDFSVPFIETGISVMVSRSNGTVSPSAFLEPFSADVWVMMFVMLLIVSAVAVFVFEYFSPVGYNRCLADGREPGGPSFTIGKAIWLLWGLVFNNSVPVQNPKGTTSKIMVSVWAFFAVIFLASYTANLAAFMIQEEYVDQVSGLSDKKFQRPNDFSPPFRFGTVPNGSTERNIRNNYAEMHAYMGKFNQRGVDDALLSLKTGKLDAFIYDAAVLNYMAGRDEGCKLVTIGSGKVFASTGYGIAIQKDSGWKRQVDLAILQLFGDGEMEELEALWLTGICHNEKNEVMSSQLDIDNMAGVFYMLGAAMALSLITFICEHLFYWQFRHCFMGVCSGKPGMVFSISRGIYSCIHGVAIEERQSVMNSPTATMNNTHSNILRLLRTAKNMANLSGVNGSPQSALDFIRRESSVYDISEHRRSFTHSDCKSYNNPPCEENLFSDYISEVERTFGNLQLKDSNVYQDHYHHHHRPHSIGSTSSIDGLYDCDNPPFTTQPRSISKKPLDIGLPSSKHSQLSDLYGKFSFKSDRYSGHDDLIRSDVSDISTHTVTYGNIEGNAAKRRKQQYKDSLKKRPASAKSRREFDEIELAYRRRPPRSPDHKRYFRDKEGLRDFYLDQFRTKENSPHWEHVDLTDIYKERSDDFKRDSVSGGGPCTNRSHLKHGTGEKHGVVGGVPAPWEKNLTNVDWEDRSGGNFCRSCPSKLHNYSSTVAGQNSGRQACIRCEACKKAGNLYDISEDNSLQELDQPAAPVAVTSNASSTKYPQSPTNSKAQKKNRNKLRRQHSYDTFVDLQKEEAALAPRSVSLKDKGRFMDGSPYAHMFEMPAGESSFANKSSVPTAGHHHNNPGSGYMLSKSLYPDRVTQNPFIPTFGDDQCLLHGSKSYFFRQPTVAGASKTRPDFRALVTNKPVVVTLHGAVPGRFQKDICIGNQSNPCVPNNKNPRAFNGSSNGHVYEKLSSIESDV
Experimental: All buffers and reagents used in assay incubations or to dissolve drugs were prepared using water purified through a Milli-Q reverse osmosis system (Millipore Corp, Bedford, Mass.) and treated with UV emissions. Prior to use in the assays, buffers were further filtered through a sterile Corning filtration unit (Corning Glass Works, Corning, N.Y.) containing a 0.2-micron filter. Buffer used to rinse the membranes on the assay filters was prepared with purified water, but was not refiltered and was stored no longer than 5 days. Stock solutions of the drugs (usually 10 mM) were dissolved in 20 mM HEPES-KOH buffer pH 7.4 (assay buffer) with the addition of 1 to 5 μL of glacial AcOH, if needed to keep them in solution. For eliprodil the stock solution was buffered with the addition of 10% DMSO. All subsequent dilutions from stock were made in buffer.
An extensively washed buffy coat membrane fraction was prepared from frozen adult rat forebrains (Zivic-Miller Laboratories, Inc., Zelienople, Pa.) as described previously (Coughenour L. L., Cordon, J. J., J. Pharmacol. Exp. Ther., 1997;280:584-592) and stored at −80° C. On the day of the assay, pellets were resuspended in 35 mL of assay buffer at pH 7.4 using a Polytron setting 6. After incubation at 37° C. for 30 minutes in a shaking water bath, the homogenate was centrifuged 40,000×g for 10 minutes at 4° C. The pellets were resuspended in fresh buffer and centrifuged 3 more times before final suspension for use in the assay.
[^3H]Ifenprodil Binding. Triplicate incubations were carried out in a volume of 0.5 mL in 1.3 mL polypropylene tubes (Marsh Biomedical Products Inc., Rochester, N.Y.) for 2 hours at room temperature. Incubations contained test agents, membranes (100-200 μg protein) and 4 nM[^3H]-ifenprodil in 20 mM HEPES-KOH buffer, pH 7.4 (assay buffer). Assays were started by addition of the membranes. Bound radioligand was separated by filtration under reduced pressure using a Tomtec Mach II, 96-well cell harvester (Tomtec Inc., Orange, Colo.). Filtration was through Whatman GF/B glass fiber filters (Whatman Ltd, Maidstone, England), which had been soaked for at least 15 minutes in 0.3% polyethylenimine and allowed to air dry. The filters were rinsed with 3 mL of ice cold assay buffer within 6 seconds. Air was allowed to pass through the filters for an additional 10 seconds to remove residual moisture. The filter mat was supported on a cold (−20° C.) teflon support, and filters from individual wells were separated and placed in Mini Poly-Q vials (Beckman Instruments Inc., Fullerton, Calif.) and filled with 4 mL of scintillation cocktail (Beckman Ready Protein^+). Radioactivity retained on the filter was determined by liquid scintillation spectrophotometry. Nonspecific binding was defined as the binding in the presence of 1 mM ifenprodil. Specific binding was 90%.
Data analysis. Binding curves were statistically analyzed for a best one or two site competition fit using GraphPad Prism software (GraphPad Software Inc., San Diego, Calif.). The normalized data was fit by nonweighted nonlinear regression to either [formula]
Control data was entered as 100%, and no parameters were constrained. Inhibition curves were compared by ANOVA with post test comparisons of the logIC50 using Dunnett's multiple comparisons post test or Student's nonpaired, two-tailed t-test (GraphPad InStat software).

[2] = tested on: 6-Hydroxydopamine-lesioned rats; assay: 6-OHDA lesioned rat assay; type: in vivo; details: for 6-OHDA MED: minimum effective dose to potentiate contraversive rotation induced by L-DOPA methyl ester 10 mg/kg SC, 6-hour period; for 6-OHDA active/inactive at the given dose: statistically significant increase in contraversive rotations vs L-DOPA only
Experimental: 6-Hydroxydopamine-lesioned rats were used (see Ungerstedt U., Arbuthnott G. W., Quantitative recording of rotational behavior in rats after 6-hydroxy-dopamine lesions of the nigrostraiatal dopamine system. Brain Res., 1971;24(3):485-93). Adult male Sprague-Dawley rats were anesthetized with chloral hydrate and unilateral lesions of the nigrostriatal dopamine system were accomplished by infusion of 8 μg of 6-hydroxydopamine HBr (6-OHDA) into the right medial forebrain bundle. Rats were pretreated 30 minutes before surgery with desipramine HCl 25 mg/kg intraperitoneally (IP) to protect noradrenegic neurons, and pargyline 25 mg/kg IP to potentiate the effects of 6-OHDA. A minimum of 3 weeks after surgery, the rotational behavior induced by apomorphine HCL 50 μg/kg subcutaneously (SC) was assessed.
Rotational behavior was measured using an automatic rotometer system (Rotorat Rotational Activity System, MED Associates, Georgia, Vt.). Anti-parkinsonian activity was assessed as the ability of the compound to potentiate the contraversive rotation induced by L-DOPA methyl ester, 10 mg/kg SC, over a 6-hour period. Experiments were conducted using a crossover paradigm where each rat received either a vehicle plus L-DOPA, or the test compound plus L-DOPA, in randomized order. Rats were tested at 7-day intervals. In experiments in which the compound was tested orally, rats were food deprived for 16 hours. Statistical analysis between treatment groups were performed using a paired t-test. The results were reported in Table 1 as the minimum effective dose (MED) of compound (mg/kg) required to produce a statistically-significant increase in total contraversive rotations compared to rats receiving L-DOPA only.

Row | melting point | IC50 [1] | Compound | 6-OHDA MED [2] | 6-OHDA active/inactive at the given dose [2]
1 | 182 to 184 °C | 357 nM | CN(C)c1ccc(CCCN(C)[C@H]2CC[C@H](c3ccc4[nH]c(=O)oc4c3)CC2)cc1 [Example 58, 6-(4-{[3(trans-4-Dimethylaminophenyl)propyl]methylamino}cyclohexyl)-3H-benzoxazol2-one] | – | –
2 | – | 38 nM | CN(CCCc1ccc(C(F)(F)F)cc1)[C@H]1CC[C@H](c2ccc3[nH]c(=O)oc3c2)CC1 [Example 23, 6-{trans-4-[Methyl-3-(4-Trifluoromethylphenyl)propylamino]cyclohexyl}-3H-benzoxazol-2-one] | 10 mg/kg | active
3 | 269 to 274 °C | – | CN(CCCc1ccc(F)c(F)c1F)[C@H]1CC[C@H](c2ccc3[nH]c(=O)oc3c2)CC1 (as salt: HCl) [Example 55, 6-(trans-4-{[3-(2,3,4-Trifluorophenyl)propyl]methylamino}cyclohexyl)-3H-benzoxazol-2-one] | – | –
4 | 239 to 242 °C | – | COc1cc2[nH]c(=O)oc2cc1[C@H]1CC[C@H](N(C)CCCc2ccc(F)cc2)CC1 (as salt: salt) [Example 65, 6-(trans-4-{[3-(4-Fluorophenyl)propyl]methylamino}cyclohexyl)-5-methoxy-3H-benzoxazol-2-one] | – | –
5 | – | 53 nM | CN(CCOc1ccccc1)[C@H]1CC[C@H](c2ccc3[nH]c(=O)oc3c2)CC1 [Example 22, 6-{trans-4-[Methyl(2-phenoxyethyl)amino]cyclohexyl}-3H-benzoxazol-2-one] | 10 mg/kg | active
6 | 241 to 243 °C | – | O=c1[nH]c2ccc([C@H]3CC[C@H](NCCSc4ccccc4)CC3)cc2o1 (as salt: HCl) [Example 5a, 6-[trans-4-(2-Phenylsulfanylethylamino)cyclohexyl]-3H-benzoxazol-2-one] | – | –
7 | – | 79 nM | CCN(CCCc1ccc(F)cc1)[C@H]1CC[C@H](c2ccc3[nH]c(=O)oc3c2)CC1 [Example 25, 6-(trans-4-{Ethyl-[3-(4-fluorophenyl)propyl]amino}cyclohexyl)-3H-benzoxazol-2-one] | 10 mg/kg | active
8 | 242 to 246 °C | – | CN(CCCc1ccccc1F)[C@H]1CC[C@H](c2ccc3[nH]c(=O)oc3c2)CC1 (as salt: HCl) [Example 46b, 6-(trans-4-{[3-(2-Fluorophenyl)propyl]methylamino}cyclohexyl)-3H-benzoxazol-2-one] | – | –
9 | 210 to 238 °C | – | CN(CCCc1cccc(F)c1)[C@H]1CC[C@H](c2ccc3[nH]c(=O)oc3c2)CC1 (as salt: HCl) [Example 47b, 6-(trans-4-{[3-(3-Fluorophenyl)propyl]methylamino}cyclohexyl)-3H-benzoxazol-2-one] | – | –
10 | 61 to 70 °C | 32 nM | CC(CCN(C)[C@H]1CC[C@H](c2ccc3[nH]c(=O)oc3c2)CC1)c1ccccc1 (stereo partly drawn) [Example 37b, 6-[trans-4-(Methyl-3-phenylbutylamino)cyclohexyl]-3H-benzoxazol-2-one] | – | –
11 | 277 to 285 °C | – | CN(CCOc1ccccc1)[C@H]1CC[C@H](c2ccc3[nH]c(=O)oc3c2)CC1 (as salt: HCl) [Example 22, 6-{trans-4-[Methyl(2-phenoxyethyl)amino]cyclohexyl}-3H-benzoxazol-2-one] | – | –
12 | 269 to 272 °C | – | CN(CCCc1ccc(F)cc1F)[C@H]1CC[C@H](c2ccc3[nH]c(=O)oc3c2)CC1 (as salt: HCl) [Example 24b, 6-(trans-4-{[3-(2,4-Difluorophenyl)propyl]methylamino}cyclohexyl)-3H-benzoxazol-2-one] | – | –
13 | 235 to 238 °C | – | CN(CCCc1c(F)cc(F)cc1F)[C@H]1CC[C@H](c2ccc3[nH]c(=O)oc3c2)CC1 (as salt: HCl) [Example 57, 6-(trans-4-{[3-(2,4,6-Trifluorophenyl)propyl]methylamino}cyclohexyl)-3H-benzoxazol-2-one] | – | –
14 | 274 to 275 °C | – | CN(CCCc1ccc(Cl)cc1F)[C@H]1CC[C@H](c2ccc3[nH]c(=O)oc3c2)CC1 (as salt: HCl) [Example 45b, 6-(trans-4-{[3-(4-Chloro-2-fluorophenyl)propyl]methylamino}cyclohexyl)-3H-benzoxazol-2-one] | – | –
15 | 58 to 62 °C | 10 nM | CN(CCCc1ccccc1)[C@H]1CC[C@H](c2ccc3[nH]c(=O)oc3c2)CC1 [Example 17, 6-{trans-4-[Methyl(3-phenylpropyl)amino]cyclohexyl}-3H-benzoxazol-2-one] | 10 mg/kg | active
16 | 291 to 304 °C | – | C[C@H](CCc1ccccc1)N[C@H]1CC[C@H](c2ccc3[nH]c(=O)oc3c2)CC1 (as salt: HCl) [Example 9, 6-{trans-4-[(R)-1-Methyl-3-phenylpropylamino]cyclohexyl}-3H-benzoxazol-2-one] | – | –
17 | 266 to 270 °C | – | NC(=O)CN(CCCc1ccc(F)cc1)[C@H]1CC[C@H](c2ccc3[nH]c(=O)oc3c2)CC1 (as salt: HCl) [Example 34, 2-{[3-(4-Fluorophenyl)propyl]-[4-(2-oxo-2,3-dihydro-benzoxazol-6-yl)-cyclohexyl]amino}acetamide] | – | –
18 | 293 to 295 °C | 9 nM | O=c1[nH]c2ccc(C3=CCC(NCCCc4ccccc4)CC3)cc2o1 (centres unmarked) [Example 6, 6-[4-(3-Phenylpropylamino)cyclohex-1-enyl]-3H-benzoxazol-2-one] | – | –
19 | – | 25 nM | CN(CCSc1ccc(F)cc1)[C@H]1CC[C@H](c2ccc3[nH]c(=O)oc3c2)CC1 [Example 20, 6-{trans-4-[2-(4-Fluorophenylsulfanylethyl)methylamino]cyclohexyl}-3H-benzoxazol-2-one] | 30 mg/kg | active
20 | 107 to 110 °C | – | O=c1[nH]c2ccc([C@H]3CC[C@H](NCC[S+]([O-])c4ccccc4)CC3)cc2o1 (stereo partly drawn) (as salt: HCl) [Example 15, 6-[trans-4-(2-Benzenesulfinylethylamino)cyclohexyl]-3H-benzoxazol-2-one] | – | –
21 | 247 to 251 °C | – | CN(CCCC1CCCCC1)[C@H]1CC[C@H](c2ccc3[nH]c(=O)oc3c2)CC1 (as salt: HCl) [Example 49b, 6-{trans-4-[(3-Cyclohexylpropyl)methylamino]cyclohexyl}-3H-benzoxazol-2-one] | – | –
22 | – | 16 nM | Cc1ccc(CCCN(C)[C@H]2CC[C@H](c3ccc4[nH]c(=O)oc4c3)CC2)cc1 [Example 21, 6-{trans-4-[Methyl-3-(p-Tolylpropyl)amino]cyclohexyl}-3H-benzoxazol-2-one] | 10 mg/kg | active
